{
  "source": "ChEMBL document CHEMBL4804284",
  "key": {"[1]": {"molecular_target": "Casein kinase I isoform alpha-like (Homo sapiens) (UniProt Q8N752)", "sequence (Q8N752 whole entry, canonical isoform)": "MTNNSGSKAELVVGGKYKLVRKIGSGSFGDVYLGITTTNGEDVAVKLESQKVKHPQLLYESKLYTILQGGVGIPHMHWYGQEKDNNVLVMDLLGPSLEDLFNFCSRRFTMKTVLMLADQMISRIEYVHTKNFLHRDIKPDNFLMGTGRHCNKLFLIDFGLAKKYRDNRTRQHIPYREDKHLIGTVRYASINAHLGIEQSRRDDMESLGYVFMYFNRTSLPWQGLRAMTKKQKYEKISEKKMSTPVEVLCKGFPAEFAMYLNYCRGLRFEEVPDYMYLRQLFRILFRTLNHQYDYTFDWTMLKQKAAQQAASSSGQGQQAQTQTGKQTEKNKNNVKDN", "experiment": "Inhibition of DNA-tagged human CSNK1A1L assessed as percent of control at 50000 nM by qPCR analysis relative to control", "set-up": "scale not given: the % may be the effect or the level left"}, "[2]": {"molecular_target": "Fibroblast growth factor receptor 3 (Homo sapiens) (UniProt P22607)", "experiment": "Inhibition of DNA-tagged human FGFR3 assessed as percent of control at 50000 nM by qPCR analysis relative to control", "set-up": "scale not given: the % may be the effect or the level left"}, "[3]": {"molecular_target": "Receptor-interacting serine/threonine-protein kinase 4 (Homo sapiens) (UniProt P57078)", "experiment": "Inhibition of DNA-tagged human RIPK4 assessed as percent of control at 50000 nM by qPCR analysis relative to control", "set-up": "scale not given: the % may be the effect or the level left"}, "[4]": {"molecular_target": "NT-3 growth factor receptor (Homo sapiens) (UniProt Q16288)", "sequence (Q16288 32-839 limits assumed)": "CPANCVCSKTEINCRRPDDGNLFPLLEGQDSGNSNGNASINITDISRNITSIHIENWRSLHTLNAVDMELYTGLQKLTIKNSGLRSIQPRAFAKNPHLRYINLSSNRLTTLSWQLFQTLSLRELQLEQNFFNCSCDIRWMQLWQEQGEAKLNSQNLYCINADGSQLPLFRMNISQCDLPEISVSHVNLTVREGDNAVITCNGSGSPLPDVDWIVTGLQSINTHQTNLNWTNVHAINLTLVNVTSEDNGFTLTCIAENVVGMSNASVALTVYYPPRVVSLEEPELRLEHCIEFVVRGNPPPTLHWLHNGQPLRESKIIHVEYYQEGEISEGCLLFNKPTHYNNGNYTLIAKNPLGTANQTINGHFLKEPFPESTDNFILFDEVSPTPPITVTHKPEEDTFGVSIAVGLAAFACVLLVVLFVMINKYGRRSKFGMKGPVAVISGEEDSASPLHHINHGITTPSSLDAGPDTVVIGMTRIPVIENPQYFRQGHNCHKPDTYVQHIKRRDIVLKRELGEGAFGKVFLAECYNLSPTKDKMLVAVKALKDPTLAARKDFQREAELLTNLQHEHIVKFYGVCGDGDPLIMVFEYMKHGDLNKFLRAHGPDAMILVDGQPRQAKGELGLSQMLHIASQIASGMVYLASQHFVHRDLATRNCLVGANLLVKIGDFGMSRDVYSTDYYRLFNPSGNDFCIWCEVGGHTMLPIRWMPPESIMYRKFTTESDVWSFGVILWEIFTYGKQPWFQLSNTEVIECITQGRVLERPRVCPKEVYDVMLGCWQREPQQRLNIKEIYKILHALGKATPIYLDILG", "experiment": "Inhibition of DNA-tagged human TRKC assessed as percent of control at 50000 nM by qPCR analysis relative to control", "set-up": "scale not given: the % may be the effect or the level left"}, "[5]": {"molecular_target": "Serine/threonine-protein kinase TAO1 (Homo sapiens) (UniProt Q7L7X3)", "experiment": "Inhibition of DNA-tagged human TAOK1 assessed as percent of control at 50000 nM by qPCR analysis relative to control", "set-up": "scale not given: the % may be the effect or the level left"}, "[6]": {"molecular_target": "Tyrosine-protein kinase TXK (Homo sapiens) (UniProt P42681)", "experiment": "Inhibition of DNA-tagged human TXK assessed as percent of control at 50000 nM by qPCR analysis relative to control", "set-up": "scale not given: the % may be the effect or the level left"}, "[7]": {"molecular_target": "Serine/threonine-protein kinase 35 (Homo sapiens) (UniProt Q8TDR2)", "experiment": "Inhibition of DNA-tagged human STK35 assessed as percent of control at 50000 nM by qPCR analysis relative to control", "set-up": "scale not given: the % may be the effect or the level left"}, "[8]": {"molecular_target": "Tyrosine-protein kinase ABL2 (Homo sapiens) (UniProt P42684)", "sequence (P42684 whole entry)": "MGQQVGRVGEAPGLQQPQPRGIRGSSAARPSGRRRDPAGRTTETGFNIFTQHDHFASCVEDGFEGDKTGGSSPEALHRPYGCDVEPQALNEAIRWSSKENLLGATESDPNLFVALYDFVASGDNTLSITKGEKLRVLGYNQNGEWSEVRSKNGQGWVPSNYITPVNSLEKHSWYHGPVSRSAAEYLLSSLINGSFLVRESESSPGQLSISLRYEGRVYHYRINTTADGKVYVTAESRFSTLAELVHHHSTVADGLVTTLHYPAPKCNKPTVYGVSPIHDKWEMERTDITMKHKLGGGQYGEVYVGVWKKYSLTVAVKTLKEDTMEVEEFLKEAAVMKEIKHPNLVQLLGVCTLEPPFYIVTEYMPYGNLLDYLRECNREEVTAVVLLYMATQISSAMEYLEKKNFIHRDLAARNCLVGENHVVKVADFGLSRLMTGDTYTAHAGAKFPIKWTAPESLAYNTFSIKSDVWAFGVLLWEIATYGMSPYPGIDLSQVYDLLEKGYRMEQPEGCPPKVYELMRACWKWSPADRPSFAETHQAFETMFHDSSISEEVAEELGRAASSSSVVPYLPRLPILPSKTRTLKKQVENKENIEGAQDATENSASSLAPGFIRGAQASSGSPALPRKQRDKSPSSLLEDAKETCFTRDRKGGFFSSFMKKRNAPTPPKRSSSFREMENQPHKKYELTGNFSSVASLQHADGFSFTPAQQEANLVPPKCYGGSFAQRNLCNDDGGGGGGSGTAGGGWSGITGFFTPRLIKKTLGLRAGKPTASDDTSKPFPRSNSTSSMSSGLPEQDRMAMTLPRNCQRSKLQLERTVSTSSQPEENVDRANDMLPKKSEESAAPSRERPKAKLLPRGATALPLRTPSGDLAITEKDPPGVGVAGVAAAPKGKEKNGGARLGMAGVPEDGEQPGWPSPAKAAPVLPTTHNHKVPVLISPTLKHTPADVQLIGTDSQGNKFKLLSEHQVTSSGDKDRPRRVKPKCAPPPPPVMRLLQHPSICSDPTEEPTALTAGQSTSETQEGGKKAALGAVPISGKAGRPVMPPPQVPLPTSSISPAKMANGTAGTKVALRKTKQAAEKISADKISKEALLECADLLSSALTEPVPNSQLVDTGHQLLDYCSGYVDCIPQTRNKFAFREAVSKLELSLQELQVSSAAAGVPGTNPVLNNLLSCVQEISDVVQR", "experiment": "Inhibition of DNA-tagged human ABL2 assessed as percent of control at 50000 nM by qPCR analysis relative to control", "set-up": "scale not given: the % may be the effect or the level left"}, "[9]": {"molecular_target": "Serine/threonine-protein kinase pim-1 (Homo sapiens) (UniProt P11309)", "sequence (P11309 whole entry, looked up)": "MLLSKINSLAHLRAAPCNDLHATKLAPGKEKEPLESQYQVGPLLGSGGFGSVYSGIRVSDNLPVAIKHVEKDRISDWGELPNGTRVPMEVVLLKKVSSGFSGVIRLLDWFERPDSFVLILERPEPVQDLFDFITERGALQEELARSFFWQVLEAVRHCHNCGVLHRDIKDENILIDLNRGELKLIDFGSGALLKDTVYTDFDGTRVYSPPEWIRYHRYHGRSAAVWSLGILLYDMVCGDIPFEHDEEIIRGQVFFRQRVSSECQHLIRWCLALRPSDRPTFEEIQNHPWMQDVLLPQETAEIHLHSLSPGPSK", "experiment": "Inhibition of DNA-tagged human PIM1 assessed as percent of control at 50000 nM by qPCR analysis relative to control", "set-up": "scale not given: the % may be the effect or the level left"}, "[10]": {"molecular_target": "Mitogen-activated protein kinase kinase kinase 2 (Homo sapiens) (UniProt Q9Y2U5)", "experiment": "Inhibition of DNA-tagged human MAP3K2 assessed as percent of control at 50000 nM by qPCR analysis relative to control", "set-up": "scale not given: the % may be the effect or the level left"}, "[11]": {"molecular_target": "Serine/threonine-protein kinase 17B (Homo sapiens) (UniProt O94768)", "experiment": "Inhibition of DNA-tagged human DRAK2 assessed as percent of control at 50000 nM by qPCR analysis relative to control", "set-up": "scale not given: the % may be the effect or the level left"}, "[12]": {"molecular_target": "Mitogen-activated protein kinase 4 (Homo sapiens) (UniProt P31152)", "experiment": "Inhibition of DNA-tagged human ERK4 assessed as percent of control at 50000 nM by qPCR analysis relative to control", "set-up": "scale not given: the % may be the effect or the level left"}, "[13]": {"tested_on": "U-266", "experiment": "Cytotoxicity against human U-266 cells at 0.1-100 uM assessed as decrease in cell viability relative to control", "assay_type": "functional, cell-based"}, "[14]": {"molecular_target": "Uncharacterized serine/threonine-protein kinase SBK3 (Homo sapiens) (UniProt P0C264)", "sequence (P0C264 whole entry)": "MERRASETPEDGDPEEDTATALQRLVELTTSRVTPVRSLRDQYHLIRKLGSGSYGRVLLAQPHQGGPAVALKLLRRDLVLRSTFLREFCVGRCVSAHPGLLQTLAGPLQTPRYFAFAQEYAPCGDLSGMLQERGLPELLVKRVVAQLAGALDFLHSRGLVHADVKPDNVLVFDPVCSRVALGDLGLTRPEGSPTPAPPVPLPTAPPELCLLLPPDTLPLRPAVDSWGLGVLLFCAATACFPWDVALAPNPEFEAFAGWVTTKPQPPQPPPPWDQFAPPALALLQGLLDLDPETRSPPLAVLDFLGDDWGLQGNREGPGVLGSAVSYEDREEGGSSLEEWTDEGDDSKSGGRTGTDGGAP", "experiment": "Inhibition of DNA-tagged human SgK110 assessed as percent of control at 50000 nM by qPCR analysis relative to control", "set-up": "scale not given: the % may be the effect or the level left"}, "[15]": {"molecular_target": "Tyrosine-protein kinase FRK (Homo sapiens) (UniProt P42685)", "experiment": "Inhibition of DNA-tagged human FRK assessed as percent of control at 50000 nM by qPCR analysis relative to control", "set-up": "scale not given: the % may be the effect or the level left"}, "[16]": {"tested_on": "Tyrosine-protein kinase ABL1 (Homo sapiens), P00519 [F317L]", "experiment": "Inhibition of DNA-tagged non-phosphorylated human ABL1 F317L mutant assessed as percent of control at 50000 nM by qPCR analysis relative to control", "set-up": "scale not given: the % may be the effect or the level left"}, "[17]": {"tested_on": "Tyrosine-protein kinase ABL1 (Homo sapiens), P00519 [Y253F]", "experiment": "Inhibition of DNA-tagged phosphorylated human ABL1 Y253F mutant assessed as percent of control at 50000 nM by qPCR analysis relative to control", "set-up": "scale not given: the % may be the effect or the level left"}, "[18]": {"molecular_target": "Cyclin-dependent kinase 2 homolog (Plasmodium falciparum (isolate K1 / Thailand)) (UniProt Q07785)", "sequence (Q07785 whole entry)": "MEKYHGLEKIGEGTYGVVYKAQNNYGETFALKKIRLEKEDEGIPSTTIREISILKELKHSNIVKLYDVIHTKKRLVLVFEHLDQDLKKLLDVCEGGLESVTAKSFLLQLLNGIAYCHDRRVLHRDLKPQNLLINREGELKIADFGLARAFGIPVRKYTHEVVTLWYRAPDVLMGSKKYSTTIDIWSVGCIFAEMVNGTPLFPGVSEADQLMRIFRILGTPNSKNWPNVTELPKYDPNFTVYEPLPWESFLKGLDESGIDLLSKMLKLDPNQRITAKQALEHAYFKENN", "experiment": "Inhibition of DNA-tagged Plasmodium falciparum PFPK5 assessed as percent of control at 50000 nM by qPCR analysis relative to control", "set-up": "scale not given: the % may be the effect or the level left"}, "[19]": {"molecular_target": "Leucine-rich repeat serine/threonine-protein kinase 2 (Homo sapiens) (UniProt Q5S007)", "experiment": "Inhibition of DNA-tagged human LRRK2 assessed as percent of control at 50000 nM by qPCR analysis relative to control", "set-up": "scale not given: the % may be the effect or the level left"}, "[20]": {"tested_on": "Receptor-type tyrosine-protein kinase FLT3 (Homo sapiens), P36888 [D835H]", "experiment": "Inhibition of DNA-tagged human FLT3 D835H mutant assessed as percent of control at 50000 nM by qPCR analysis relative to control", "set-up": "scale not given: the % may be the effect or the level left"}, "[21]": {"molecular_target": "Serine/threonine-protein kinase 38 (Homo sapiens) (UniProt Q15208)", "experiment": "Inhibition of DNA-tagged human NDR1 assessed as percent of control at 50000 nM by qPCR analysis relative to control", "set-up": "scale not given: the % may be the effect or the level left"}, "[22]": {"tested_on": "Tyrosine-protein kinase ABL1 (Homo sapiens), P00519 [Q252H]", "experiment": "Inhibition of DNA-tagged non-phosphorylated human ABL1 Q252H mutant assessed as percent of control at 50000 nM by qPCR analysis relative to control", "set-up": "scale not given: the % may be the effect or the level left"}, "[23]": {"molecular_target": "Serine/threonine-protein kinase TBK1 (Homo sapiens) (UniProt Q9UHD2)", "sequence (Q9UHD2 whole entry)": "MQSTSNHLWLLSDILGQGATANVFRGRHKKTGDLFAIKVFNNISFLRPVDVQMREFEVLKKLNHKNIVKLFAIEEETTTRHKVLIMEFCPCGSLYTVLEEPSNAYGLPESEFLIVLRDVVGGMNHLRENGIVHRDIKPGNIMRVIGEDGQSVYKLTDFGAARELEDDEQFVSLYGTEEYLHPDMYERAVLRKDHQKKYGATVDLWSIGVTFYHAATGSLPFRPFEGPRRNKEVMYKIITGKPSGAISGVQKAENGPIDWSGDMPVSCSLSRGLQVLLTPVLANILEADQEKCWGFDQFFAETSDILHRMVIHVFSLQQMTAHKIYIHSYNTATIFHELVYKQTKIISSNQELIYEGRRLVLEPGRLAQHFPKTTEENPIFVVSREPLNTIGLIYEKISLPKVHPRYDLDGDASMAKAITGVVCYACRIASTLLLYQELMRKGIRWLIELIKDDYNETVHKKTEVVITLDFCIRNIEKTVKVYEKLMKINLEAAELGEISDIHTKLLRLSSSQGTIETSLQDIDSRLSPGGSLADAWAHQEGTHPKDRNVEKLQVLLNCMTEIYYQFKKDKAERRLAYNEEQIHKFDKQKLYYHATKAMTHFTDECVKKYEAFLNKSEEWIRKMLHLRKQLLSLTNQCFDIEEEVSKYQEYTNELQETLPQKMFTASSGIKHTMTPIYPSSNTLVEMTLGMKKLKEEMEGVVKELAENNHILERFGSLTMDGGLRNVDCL", "experiment": "Inhibition of DNA-tagged human TBK1 assessed as percent of control at 50000 nM by qPCR analysis relative to control", "set-up": "scale not given: the % may be the effect or the level left"}, "[24]": {"molecular_target": "ALK tyrosine kinase receptor (Homo sapiens) (UniProt Q9UM73)", "experiment": "Inhibition of DNA-tagged human ALK assessed as percent of control at 50000 nM by qPCR analysis relative to control", "set-up": "scale not given: the % may be the effect or the level left"}, "[25]": {"molecular_target": "Aurora kinase C (Homo sapiens) (UniProt Q9UQB9)", "experiment": "Inhibition of DNA-tagged human AURKC assessed as percent of control at 50000 nM by qPCR analysis relative to control", "set-up": "scale not given: the % may be the effect or the level left"}, "[26]": {"molecular_target": "Serine/threonine-protein kinase 33 (Homo sapiens) (UniProt Q9BYT3)", "experiment": "Inhibition of DNA-tagged human STK33 assessed as percent of control at 50000 nM by qPCR analysis relative to control", "set-up": "scale not given: the % may be the effect or the level left"}, "[27]": {"molecular_target": "Serine/threonine-protein kinase tousled-like 1 (Homo sapiens) (UniProt Q9UKI8)", "experiment": "Inhibition of DNA-tagged human TLK1 assessed as percent of control at 50000 nM by qPCR analysis relative to control", "set-up": "scale not given: the % may be the effect or the level left"}, "[28]": {"molecular_target": "Serine/threonine-protein kinase PLK4 (Homo sapiens) (UniProt O00444)", "sequence (O00444 whole entry)": "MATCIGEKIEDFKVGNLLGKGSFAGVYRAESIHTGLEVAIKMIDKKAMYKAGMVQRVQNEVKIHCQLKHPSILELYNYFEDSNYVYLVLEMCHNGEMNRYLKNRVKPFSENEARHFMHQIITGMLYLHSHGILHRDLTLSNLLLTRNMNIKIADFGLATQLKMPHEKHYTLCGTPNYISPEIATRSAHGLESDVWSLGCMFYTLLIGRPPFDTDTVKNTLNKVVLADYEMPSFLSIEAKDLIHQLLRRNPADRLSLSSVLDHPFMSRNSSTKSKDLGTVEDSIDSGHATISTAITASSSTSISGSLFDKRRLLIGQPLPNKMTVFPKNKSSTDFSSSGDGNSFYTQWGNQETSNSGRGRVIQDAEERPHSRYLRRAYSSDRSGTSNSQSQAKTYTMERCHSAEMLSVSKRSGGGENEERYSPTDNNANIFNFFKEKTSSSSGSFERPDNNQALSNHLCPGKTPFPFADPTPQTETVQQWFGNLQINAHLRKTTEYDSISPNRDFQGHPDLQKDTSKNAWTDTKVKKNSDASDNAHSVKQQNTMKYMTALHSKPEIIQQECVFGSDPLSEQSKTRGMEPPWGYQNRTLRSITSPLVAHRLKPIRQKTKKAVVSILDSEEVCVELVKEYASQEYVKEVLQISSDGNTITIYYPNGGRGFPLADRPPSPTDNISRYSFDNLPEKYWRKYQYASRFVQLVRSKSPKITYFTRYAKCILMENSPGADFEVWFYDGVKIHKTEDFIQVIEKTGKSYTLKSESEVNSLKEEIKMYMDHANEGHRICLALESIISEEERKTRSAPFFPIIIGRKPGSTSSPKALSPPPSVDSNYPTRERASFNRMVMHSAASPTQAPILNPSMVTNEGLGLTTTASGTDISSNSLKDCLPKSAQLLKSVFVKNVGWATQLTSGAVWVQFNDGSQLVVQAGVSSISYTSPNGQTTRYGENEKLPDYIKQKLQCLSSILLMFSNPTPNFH", "experiment": "Inhibition of DNA-tagged human PLK4 assessed as percent of control at 50000 nM by qPCR analysis relative to control", "set-up": "scale not given: the % may be the effect or the level left"}, "[29]": {"molecular_target": "Serine/threonine-protein kinase TAO3 (Homo sapiens) (UniProt Q9H2K8)", "experiment": "Inhibition of DNA-tagged human TAOK3 assessed as percent of control at 50000 nM by qPCR analysis relative to control", "set-up": "scale not given: the % may be the effect or the level left"}, "[30]": {"molecular_target": "Ribosomal protein S6 kinase alpha-4 (Homo sapiens) (UniProt O75676)", "experiment": "Inhibition of DNA-tagged human C-terminal RPS6KA4 kinase domain 2 assessed as percent of control at 50000 nM by qPCR analysis relative to control", "set-up": "scale not given: the % may be the effect or the level left"}},
  "note": "Activity calls are given as the source filed them. No cut-off for these calls is given here.",
  "data": [
    {"compound": "CN1C(=O)/C(=C2/C(=O)Nc3ccccc32)c2ccccc21", "values": [
      {"measurement": "Activity", "setting": "[1]", "result": 97, "unit": "%"},
      {"measurement": "Activity", "setting": "[2]", "result": 100, "unit": "%"},
      {"measurement": "Activity", "setting": "[3]", "result": 98, "unit": "%"},
      {"measurement": "Activity", "setting": "[4]", "result": 66, "unit": "%"},
      {"measurement": "Activity", "setting": "[5]", "result": 87, "unit": "%"},
      {"measurement": "Activity", "setting": "[6]", "result": 100, "unit": "%"},
      {"measurement": "Activity", "setting": "[7]", "result": 89, "unit": "%"},
      {"measurement": "Activity", "setting": "[8]", "result": 89, "unit": "%"},
      {"measurement": "Activity", "setting": "[9]", "result": 83, "unit": "%"},
      {"measurement": "Activity", "setting": "[10]", "result": 99, "unit": "%"},
      {"measurement": "Activity", "setting": "[11]", "result": 100, "unit": "%"},
      {"measurement": "Activity", "setting": "[12]", "result": 86, "unit": "%"},
      {"measurement": "Activity", "setting": "[13]", "result": "Active"},
      {"measurement": "Activity", "setting": "[14]", "result": 100, "unit": "%"},
      {"measurement": "Activity", "setting": "[15]", "result": 96, "unit": "%"},
      {"measurement": "Activity", "setting": "[16]", "result": 100, "unit": "%"},
      {"measurement": "Activity", "setting": "[17]", "result": 100, "unit": "%"},
      {"measurement": "Activity", "setting": "[18]", "result": 72, "unit": "%"},
      {"measurement": "Activity", "setting": "[19]", "result": 96, "unit": "%"},
      {"measurement": "Activity", "setting": "[20]", "result": 100, "unit": "%"},
      {"measurement": "Activity", "setting": "[21]", "result": 87, "unit": "%"},
      {"measurement": "Activity", "setting": "[22]", "result": 100, "unit": "%"},
      {"measurement": "Activity", "setting": "[23]", "result": 50, "unit": "%"},
      {"measurement": "Activity", "setting": "[24]", "result": 97, "unit": "%"},
      {"measurement": "Activity", "setting": "[25]", "result": 94, "unit": "%"},
      {"measurement": "Activity", "setting": "[26]", "result": 100, "unit": "%"},
      {"measurement": "Activity", "setting": "[27]", "result": 81, "unit": "%"},
      {"measurement": "Activity", "setting": "[28]", "result": 79, "unit": "%"},
      {"measurement": "Activity", "setting": "[29]", "result": 85, "unit": "%"},
      {"measurement": "Activity", "setting": "[30]", "result": 89, "unit": "%"}
    ]}
  ]
}
